{"source": "patent US9511086B2", "about": "“Method for improving immune system function by administering agents that inhibit DNA-dependent protein kinase-directed apoptosis” (The Board of Trustees of the Leland Stanford Junior …, priority 2010, dated 2016)", "key": {"protein kinase A": {"tested_on": "protein kinase A", "details": "concentrations of up to 100 μM; cited from earlier work"}, "aurora-related kinase 2": {"target": "aurora-related kinase 2 (Homo sapiens, UniProt Q96GD4)", "sequence (Q96GD4 whole entry)": "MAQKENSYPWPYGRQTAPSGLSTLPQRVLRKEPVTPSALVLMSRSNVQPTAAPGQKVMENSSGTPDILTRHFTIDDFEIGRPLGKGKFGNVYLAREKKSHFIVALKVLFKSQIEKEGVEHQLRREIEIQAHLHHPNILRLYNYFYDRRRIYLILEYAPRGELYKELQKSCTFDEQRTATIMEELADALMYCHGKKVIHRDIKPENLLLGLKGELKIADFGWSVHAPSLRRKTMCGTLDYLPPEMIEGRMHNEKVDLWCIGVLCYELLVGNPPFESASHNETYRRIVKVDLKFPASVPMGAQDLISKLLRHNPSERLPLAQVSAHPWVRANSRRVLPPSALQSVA", "details": "concentrations of up to 100 μM; cited from earlier work"}, "ATM": {"target": "ATM (Homo sapiens, UniProt Q13315)", "sequence (Q13315 whole entry, species assumed)": "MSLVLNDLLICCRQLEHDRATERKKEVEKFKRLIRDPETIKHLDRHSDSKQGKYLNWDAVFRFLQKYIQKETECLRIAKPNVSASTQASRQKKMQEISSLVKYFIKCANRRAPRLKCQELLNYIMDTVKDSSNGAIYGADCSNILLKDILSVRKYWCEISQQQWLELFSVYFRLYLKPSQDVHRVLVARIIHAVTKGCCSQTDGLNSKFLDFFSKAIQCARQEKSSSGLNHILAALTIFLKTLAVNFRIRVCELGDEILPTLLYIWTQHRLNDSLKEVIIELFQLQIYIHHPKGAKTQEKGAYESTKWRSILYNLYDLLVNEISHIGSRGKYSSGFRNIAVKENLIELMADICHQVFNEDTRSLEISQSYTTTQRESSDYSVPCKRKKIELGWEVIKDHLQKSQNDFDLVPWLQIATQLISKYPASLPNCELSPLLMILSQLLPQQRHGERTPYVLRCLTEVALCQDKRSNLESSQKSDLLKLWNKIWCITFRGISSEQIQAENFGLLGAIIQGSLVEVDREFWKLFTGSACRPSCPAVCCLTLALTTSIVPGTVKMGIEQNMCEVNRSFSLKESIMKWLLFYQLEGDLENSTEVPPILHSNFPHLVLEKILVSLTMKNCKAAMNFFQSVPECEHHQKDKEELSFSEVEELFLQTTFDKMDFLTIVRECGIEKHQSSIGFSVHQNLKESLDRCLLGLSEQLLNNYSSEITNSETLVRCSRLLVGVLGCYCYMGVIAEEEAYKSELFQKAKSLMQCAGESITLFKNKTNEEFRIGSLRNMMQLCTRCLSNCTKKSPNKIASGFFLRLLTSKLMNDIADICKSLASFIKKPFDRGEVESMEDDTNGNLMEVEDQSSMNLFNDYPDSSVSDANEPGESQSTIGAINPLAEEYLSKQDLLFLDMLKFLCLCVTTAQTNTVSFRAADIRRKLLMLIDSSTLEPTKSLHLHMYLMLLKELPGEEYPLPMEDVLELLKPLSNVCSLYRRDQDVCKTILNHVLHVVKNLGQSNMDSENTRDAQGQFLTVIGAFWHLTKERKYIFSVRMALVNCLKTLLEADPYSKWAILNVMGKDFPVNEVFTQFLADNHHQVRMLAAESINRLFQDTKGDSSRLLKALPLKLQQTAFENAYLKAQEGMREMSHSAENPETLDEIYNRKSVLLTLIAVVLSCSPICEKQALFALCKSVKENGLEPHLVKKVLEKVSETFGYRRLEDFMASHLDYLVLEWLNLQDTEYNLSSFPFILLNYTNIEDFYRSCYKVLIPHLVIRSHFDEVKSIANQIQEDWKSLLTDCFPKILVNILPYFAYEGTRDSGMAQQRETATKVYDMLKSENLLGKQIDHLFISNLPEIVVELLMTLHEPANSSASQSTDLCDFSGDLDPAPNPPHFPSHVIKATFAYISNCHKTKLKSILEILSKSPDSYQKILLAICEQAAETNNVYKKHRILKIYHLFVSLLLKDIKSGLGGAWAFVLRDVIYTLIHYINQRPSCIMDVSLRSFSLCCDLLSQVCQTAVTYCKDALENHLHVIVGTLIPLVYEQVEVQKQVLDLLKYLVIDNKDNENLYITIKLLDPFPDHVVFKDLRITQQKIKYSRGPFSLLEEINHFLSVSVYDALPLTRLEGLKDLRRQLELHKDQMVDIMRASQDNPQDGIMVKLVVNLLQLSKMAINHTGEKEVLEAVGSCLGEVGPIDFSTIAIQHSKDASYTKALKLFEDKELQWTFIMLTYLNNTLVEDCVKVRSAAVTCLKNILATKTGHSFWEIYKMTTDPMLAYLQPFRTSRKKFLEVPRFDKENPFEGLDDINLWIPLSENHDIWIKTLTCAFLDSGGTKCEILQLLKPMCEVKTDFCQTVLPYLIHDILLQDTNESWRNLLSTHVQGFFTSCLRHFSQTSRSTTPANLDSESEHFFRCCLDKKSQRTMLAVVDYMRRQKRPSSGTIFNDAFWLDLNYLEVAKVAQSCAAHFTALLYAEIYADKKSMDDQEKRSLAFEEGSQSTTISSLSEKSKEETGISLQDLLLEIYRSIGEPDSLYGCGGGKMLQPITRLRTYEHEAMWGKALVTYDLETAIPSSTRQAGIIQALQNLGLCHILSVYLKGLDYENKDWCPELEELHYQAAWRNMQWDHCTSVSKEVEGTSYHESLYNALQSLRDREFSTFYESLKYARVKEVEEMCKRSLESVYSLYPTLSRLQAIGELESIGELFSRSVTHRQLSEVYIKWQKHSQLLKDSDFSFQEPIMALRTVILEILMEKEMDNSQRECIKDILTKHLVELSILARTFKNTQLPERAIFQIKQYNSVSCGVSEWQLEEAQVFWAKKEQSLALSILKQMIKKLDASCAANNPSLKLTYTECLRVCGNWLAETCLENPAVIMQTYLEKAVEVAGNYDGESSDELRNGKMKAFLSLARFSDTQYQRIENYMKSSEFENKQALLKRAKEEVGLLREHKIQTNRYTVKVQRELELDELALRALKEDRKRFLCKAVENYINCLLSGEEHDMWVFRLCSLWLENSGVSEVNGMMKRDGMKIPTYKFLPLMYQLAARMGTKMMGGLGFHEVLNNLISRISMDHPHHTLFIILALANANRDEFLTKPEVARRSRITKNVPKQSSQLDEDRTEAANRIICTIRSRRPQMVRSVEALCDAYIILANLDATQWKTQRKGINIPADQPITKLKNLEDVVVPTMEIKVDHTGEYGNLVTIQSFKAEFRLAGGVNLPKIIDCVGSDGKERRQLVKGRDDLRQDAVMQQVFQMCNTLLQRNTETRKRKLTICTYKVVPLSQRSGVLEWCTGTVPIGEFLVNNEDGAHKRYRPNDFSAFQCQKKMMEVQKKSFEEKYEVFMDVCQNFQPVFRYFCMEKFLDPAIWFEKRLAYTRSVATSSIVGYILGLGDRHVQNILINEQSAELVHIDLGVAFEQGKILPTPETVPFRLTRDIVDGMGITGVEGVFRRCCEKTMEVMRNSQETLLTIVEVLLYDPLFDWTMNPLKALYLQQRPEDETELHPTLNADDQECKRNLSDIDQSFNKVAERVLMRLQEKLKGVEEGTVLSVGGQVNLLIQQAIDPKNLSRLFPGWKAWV", "details": "concentrations of up to 100 μM; cited from earlier work"}, "Bim": {"tested_on": "Bim", "experiment": "Bim protein level by flow cytometry in RA T cells", "type": "cell-based, human", "details": "treated vs untreated", "method": "(§1) FIG. 8. The DNA-PKcs-JNK pathway upregulates the apoptogenic molecules Bim and Bmf in RA CD4+ T cells. CD4+CD45RO− T cells were isolated from the peripheral blood of 6 controls and 6 RA patients. Cells were maintained in culture without mitogenic stimulation for 72 h. (A) Puma, Noxa, Bim and Bmf transcript levels in freshly isolated cells were quantified by qPCR. Data are presented as mean±SEM. (B) Flow cytometry analysis of Bim levels in control and RA naïve T cells after 72 h of culture. Expression of Bim protein in n=5 RA and n=5 controls samples is given as MFI of Alexa Fluor 488 Bim. (C) Flow cytometry analysis of Bmf levels in control and RA naïve T cells. Expression of Bmf protein in n=6 RA and n=4 controls samples is given as MFI of PE Bmf. (D) Bcl-2 protein levels were analyzed by flow cytometry. Expression of Bcl-2 protein in n=6 RA and n=6 control samples is given as MFI of FITC Bcl-2. (E) Bim protein level in the absence and presence of the DNA-PKcs inhibitor were analyzed by flow cytometry in samples from 4 RA patients. […]\n(§2) For intracellular staining, cells were fixed directly with 1.5% formaldehyde for 10 min at room temperature and resuspended in 90% methanol. […] Proteins or 8-oxoguanine expression were detected by an LSRII flow cytometer (BD Biosciences). Data were analyzed by FlowJo software (Tree Star Inc., Ashland, Oreg.). […]"}, "[1]": {"target": "cyclin-dependent kinase 2 (Homo sapiens, UniProt P24941)", "details": "concentrations of up to 100 μM; cited from earlier work"}, "[2]": {"target": "Rous sarcoma tyrosine kinase (Homo sapiens, UniProt P12931)", "sequence (P12931 whole entry)": "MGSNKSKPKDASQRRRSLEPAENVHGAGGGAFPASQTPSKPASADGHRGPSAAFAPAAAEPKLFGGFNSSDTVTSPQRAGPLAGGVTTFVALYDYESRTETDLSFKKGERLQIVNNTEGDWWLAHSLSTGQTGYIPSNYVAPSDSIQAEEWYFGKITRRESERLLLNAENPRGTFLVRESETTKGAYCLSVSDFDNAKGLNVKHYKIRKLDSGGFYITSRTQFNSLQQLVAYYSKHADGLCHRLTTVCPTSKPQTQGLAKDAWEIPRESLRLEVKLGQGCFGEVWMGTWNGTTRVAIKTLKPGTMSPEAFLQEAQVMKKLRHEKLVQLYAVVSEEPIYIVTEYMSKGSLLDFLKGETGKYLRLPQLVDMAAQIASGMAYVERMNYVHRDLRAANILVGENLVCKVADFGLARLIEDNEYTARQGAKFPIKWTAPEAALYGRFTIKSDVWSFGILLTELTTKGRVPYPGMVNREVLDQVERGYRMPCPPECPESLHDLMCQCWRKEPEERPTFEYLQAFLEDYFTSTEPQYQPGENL", "details": "concentrations of up to 100 μM; cited from earlier work"}, "Bmf": {"tested_on": "Bmf", "experiment": "Bmf protein level by flow cytometry in RA T cells", "type": "cell-based, human", "details": "treated vs untreated", "method": "as §1, §2"}, "casein kinase 1": {"tested_on": "casein kinase 1", "details": "concentrations of up to 100 μM; cited from earlier work"}, "[3]": {"tested_on": "CD4+CD45RO− T cells from control donors", "experiment": "T-cell apoptosis by flow cytometry staining for PI, control T cells", "type": "cell-based, human", "method": "FIG. 5. Inhibition of DNA-PKcs activity protects RA T cells from apoptosis. CD4+CD45RO− T cells were isolated from 6 control donors and 7 RA patients. Cells were maintained in culture without stimulation for 48 h and then were treated with the DNA-PKcs inhibitor IC86621 (50 nM, 100 nM) or vehicle for 24 h. Cells were harvested and (A) T-cell apoptosis was measured by flow cytometry staining for PI. Representative cytometric data from one patient and one control are shown. (B) Frequencies of PI-positive T-cells in the absence and presence of the DNA-PKcs inhibitor from 6 controls and 7 RA patients are presented as mean±SEM.\nPeripheral blood mononuclear cells (PBMC) were separated from whole blood with Lymphocyte Separation Medium (Mediatech Inc., Herndon, Va.). CD45RO^− cells were negatively selected with microbeads (Miltenyi Biotec Inc., Auburn, Calif.), and the naïve CD4^+CD45RO^− population was subsequently selected with CD4 microbeads (autoMACS, Miltenyi Biotec Inc.). […]\nTo quantify T-cell apoptosis, CD4^+CD45RO^− cells were washed and suspended in 500 μl FACS buffer supplemented with EasyComp Blank Particles (Spherotech, Lake Forest, Ill.). Uptake of PI (Sigma-Aldrich) was determined by flow cytometry. Apoptotic cells were detected with PE-Annexin V (BD Biosciences, San Jose, Calif.) and 7-AAD (BD Biosciences)."}, "protein kinase C": {"tested_on": "protein kinase C", "details": "concentrations of up to 100 μM; cited from earlier work"}}}
{"compound": "CC(=O)c1ccc(N2CCOCC2)cc1O", "note": "[IC86621, 1-(2-hydroxy-4-morpholin-4-ylphenyl)ethanone]", "values": [{"measurement": "activity against protein kinase A", "setting": "protein kinase A", "result": "neither activity"}, {"measurement": "activity against aurora-related kinase 2", "setting": "aurora-related kinase 2", "result": "neither activity"}, {"measurement": "activity against ATM", "setting": "ATM", "result": "neither activity"}, {"measurement": "intracellular Bim levels", "setting": "Bim", "result": "reduced"}, {"measurement": "activity against cyclin-dependent kinase 2", "setting": "[1]", "result": "neither activity"}, {"measurement": "activity against Rous sarcoma tyrosine kinase", "setting": "[2]", "result": "neither activity"}, {"measurement": "intracellular Bmf levels", "setting": "Bmf", "result": "reduced"}, {"measurement": "activity against casein kinase 1", "setting": "casein kinase 1", "result": "neither activity"}, {"measurement": "apoptotic control T cells", "setting": "[3]; after 72 h of ex vivo culture, independent from treatment with the inhibitor", "result": "12-14%"}, {"measurement": "survival in control T cells", "setting": "[3]; control T cells, inhibitor 50 nM, 100 nM for 24 h", "result": "essentially did not affect survival"}, {"measurement": "activity against protein kinase C", "setting": "protein kinase C", "result": "neither activity"}]}
